Experimental data: patent US11066414B2, “Cot modulators and methods of use thereof” (Gilead Sciences, Inc., priority 2015, dated 2021)
Read-outs that look alike come from different tables or passages of the source.

Legend:
TNFα = assay: Cot Monocyte TNFα Cell Based Assay
Human Cot = Human Cot (Homo sapiens (Human), UniProt P41279); assay: High Throughput Cot Biochemical Assay
[1] = Homo sapiens, Monocyte, read-out: EC50 TNF, LPS-stimulated human monocytes, TNFα
[2] = IC50 HTRF, Cot HTRF (TR-FRET) biochemical assay
[3] = read-out: EC50 TNF, LPS-stimulated human monocytes, TNFα
[4] = read-out: IC50 HTRF, Cot HTRF (TR-FRET) biochemical assay

Chain of Human Cot (P41279 30-397): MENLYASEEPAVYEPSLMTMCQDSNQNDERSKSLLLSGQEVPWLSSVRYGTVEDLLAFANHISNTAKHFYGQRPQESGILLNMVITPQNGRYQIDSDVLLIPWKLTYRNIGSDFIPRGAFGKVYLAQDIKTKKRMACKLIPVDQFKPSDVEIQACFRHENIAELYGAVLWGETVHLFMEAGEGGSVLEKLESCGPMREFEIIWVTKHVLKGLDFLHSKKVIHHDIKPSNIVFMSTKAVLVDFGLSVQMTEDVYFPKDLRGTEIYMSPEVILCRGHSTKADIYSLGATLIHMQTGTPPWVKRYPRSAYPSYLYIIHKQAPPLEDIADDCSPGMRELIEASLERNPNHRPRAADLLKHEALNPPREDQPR

EC50 (TNFα; [1])	IC50 (Human Cot; [2])	SMILES	other results
1060 nM	26 nM	CC(C)(C)N1CCC(n2cc([C@@H](Nc3cc(Cl)c4ncc(C#N)c(NC5CCCCCC5)c4c3)c3cccnc3)nn2)CC1 [Example 288, (S)-6-(((1-(1-(tert-butyl)piperidin-4-yl)-1H-1,2,3-triazol-4-yl)(pyridin-3-yl)methyl)amino)-8-chloro-4-(cycloheptylamino)quinoline-3-carbonitrile]	
200 nM	9 nM	CC(C)n1cc([C@@H](Nc2cc(Cl)c3ncc(C#N)c(Nc4ccc(F)c(Cl)c4)c3c2)c2cccnc2Cl)nn1 [Example 297, (S)-8-chloro-4-((3-chloro-4-fluoro-phenyl)amino)-6-(((2-chloropyridin-3-yl)(1-isopropyl-1H-1,2,3-triazol-4-yl)methyl)amino)quinoline-3-carbonitrile]	
84 nM	3 nM	Cn1nccc1[C@H](Nc1cc(Cl)c2ncc(C#N)c(Nc3ccc(F)c(Cl)c3)c2c1)c1cn(C2CCN(C(C)(C)C)CC2)nn1 [Example 305, (S)-6-(((1-(1-(tert-butyl)piperidin-4-yl)-1H-1,2,3-triazol-4-yl)(1-methyl-1H-pyrazol-5-yl)methyl)amino)-8-chloro-4-((3-chloro-4-fluorophenyl)amino)quinoline-3-carbonitrile]	
251 nM	16 nM	N#Cc1csc([C@H](Nc2cc(Cl)c3ncc(C#N)c(Nc4ccc(F)c(Cl)c4)c3c2)c2cn(Cc3ccccn3)nn2)c1 [Example 317, (R)-8-chloro-4-((3-chloro-4-fluorophenyl)amino)-6-(((4-cyano-thiophen-2-yl)(1-(pyridin-2-ylmethyl)-1H-1,2,3-triazol-4-yl)methyl)-amino)quinoline-3-carbonitrile]	
165 nM	5 nM	N#Cc1cnc2c(Cl)cc(N[C@H](c3cn(C4COC4)nn3)c3cccnc3Cl)cc2c1Nc1ccc(F)c(Cl)c1 [Example 319, (S)-8-chloro-4-((3-chloro-4-fluorophenyl)amino)-6-(((2-chloropyridin-3-yl)(1-(oxetan-3-yl)-1H-1,2,3-triazol-4-yl)methyl)amino)-quinoline-3-carbonitrile]	
212 nM	10 nM	Cc1nc(Cl)ccc1[C@H](Nc1cc(Cl)c2ncc(C#N)c(Nc3ccc(F)c(Cl)c3)c2c1)c1cn(C2COC2)nn1 [Example 321, (S)-8-chloro-6-(((6-chloro-2-methyl-pyridin-3-yl)(1-(oxetan-3-yl)-1H-1,2,3-triazol-4-yl)methyl)amino)-4-((3-chloro-4-fluorophenyl)amino)quinoline-3-carbonitrile]	

The next lines start with the compound.

SMILES	EC50 (TNFα; [1])	IC50 (Human Cot; [2])	other results
CCN1CCc2c([C@H](Nc3cc(Cl)c4ncc(C#N)c(Nc5ccc(F)c(Cl)c5)c4c3)c3cn(C4COC4)nn3)csc2C1 [Example 278, (S)-8-chloro-4-((3-chloro-4-fluorophenyl)amino)-6-(((6-ethyl-4,5,6,7-tetrahydro-thieno[2,3-c]pyridin-3-yl)(1-(oxetan-3-yl)-1H-1,2,3-triazol-4-yl)methyl)amino)quinoline-3-carbonitrile]			EC50 (TNFα; Homo sapiens, Monocyte, read-out: EC50 TNF): 269 nM; IC50 (Human Cot): 3 nM
N#Cc1cnc2c(Cl)cc(N[C@H](c3cn(C4COC4)nn3)c3csc4c3CCNC4)cc2c1Nc1ccc(F)c(Cl)c1 [Example 279, (S)-8-chloro-4-((3-chloro-4-fluorophenyl)amino)-6-(((1-(oxetan-3-yl)-1H-1,2,3-triazol-4-yl)(4,5,6,7-tetrahydrothieno[2,3-c]pyridin-3-yl)methyl)amino)quinoline-3-carbonitrile]	457 nM	3 nM	
Cc1ncccc1[C@H](Nc1cc(Cl)c2ncc(C#N)c(Nc3ccc(F)c(Cl)c3)c2c1)c1cn(C2CCN(C(C)(C)C)CC2)nn1 [Example 283]			EC50 (TNFα; [3]): 50 nM; IC50 (Human Cot; [4]): 3 nM
CC(C)(C)N1CCC(n2cc([C@@H](Nc3cc(Cl)c4ncc(C#N)c(Nc5ccc(F)c(F)c5)c4c3)c3cccnc3)nn2)CC1 [Example 285, (S)-6-(((1-(1-(tert-butyl)piperidin-4-yl)-1H-1,2,3-triazol-4-yl)(pyridin-3-yl)methyl)amino)-8-chloro-4-((3,4-difluorophenyl)amino)quinoline-3-carbonitrile]	219 nM	8 nM	
CC(C)(C)N1CCC(n2cc([C@@H](Nc3cc(Cl)c4ncc(C#N)c(Nc5cccc(Cl)c5F)c4c3)c3cccnc3)nn2)CC1 [Example 286]			EC50 (TNFα; [3]): 121 nM; IC50 (Human Cot; [4]): 4 nM
Cc1nc(Cl)ccc1[C@H](Nc1cc(Cl)c2ncc(C#N)c(Nc3ccc(F)c(Cl)c3)c2c1)c1cn(C(C)C)nn1 [Example 294, (S)-8-chloro-6-(((6-chloro-2-methylpyridin-3-yl)(1-isopropyl-1H-1,2,3-triazol-4-yl)methyl)amino)-4-((3-chloro-4-fluorophenyl)amino)quinoline-3-carbonitrile]	166 nM	9 nM	
CC(C)n1cc([C@@H](Nc2cc(Cl)c3ncc(C#N)c(Nc4ccc(F)c(Cl)c4)c3c2)c2cnco2)nn1 [Example 298, (R)-8-chloro-4-((3-chloro-4-fluoro-phenyl)amino)-6-(((1-isopropyl-1H-1,2,3-triazol-4-yl)(oxazol-5-yl)methyl)-amino)quinoline-3-carbonitrile]	1500 nM	39 nM	
CC(C)(C)N1CCC(n2cc([C@@H](Nc3cc(Cl)c4ncc(C#N)c(Nc5ccc(F)c(Cl)c5)c4c3)c3cnco3)nn2)CC1 [Example 299, (R)-6-(((1-(1-(tert-butyl)piperidin-4-yl)-1H-1,2,3-triazol-4-yl)(oxazol-5-yl)methyl)amino)-8-chloro-4-((3-chloro-4-fluorophenyl)amino)quinoline-3-carbonitrile]	739 nM	18 nM	
CC(C)(C)N1CCC(n2cc([C@@H](Nc3cc(Cl)c4ncc(C#N)c(Nc5ccc(F)c(Cl)c5)c4c3)c3csc(N4CCOCC4)n3)nn2)CC1 [Example 300]			EC50 (TNFα; [3]): 165 nM; IC50 (Human Cot; [4]): 7 nM
N#Cc1cnc2c(Cl)cc(N[C@H](c3cn(C4COC4)nn3)c3csc(N4CCOCC4)n3)cc2c1Nc1ccc(F)c(Cl)c1 [Example 302, (S)-8-chloro-4-((3-chloro-4-fluoro-phenyl)amino)-6-(((2-morpholinothiazol-4-yl)(1-(oxetan-3-yl)-1H-1,2,3-triazol-4-yl)methyl)amino)quinoline-3-carbonitrile]	472 nM	10 nM	
CC(C)n1cc([C@@H](Nc2cc(Cl)c3ncc(C#N)c(Nc4ccc(F)c(Cl)c4)c3c2)c2ccnn2C)nn1 [Example 304, (S)-8-chloro-4-((3-chloro-4-fluorophenyl)amino)-6-(((1-isopropyl-1H-1,2,3-triazol-4-yl)(1-methyl-1H-pyrazol-5-yl)methyl)amino)quinoline-3-carbonitrile]	234 nM	6 nM	
Cc1ncsc1[C@H](Nc1cc(Cl)c2ncc(C#N)c(Nc3ccc(F)c(Cl)c3)c2c1)c1cn(C(C)C)nn1 [Example 306, (R)-8-chloro-4-((3-chloro-4-fluorophenyl)amino)-6-(((1-isopropyl-1H-1,2,3-triazol-4-yl)(4-methylthiazol-5-yl)methyl)amino)quinoline-3-carbonitrile]	202 nM	6 nM	
Cc1ncsc1[C@H](Nc1cc(Cl)c2ncc(C#N)c(Nc3ccc(F)c(Cl)c3)c2c1)c1cn(C2CCN(C(C)(C)C)CC2)nn1 [Example 307, (R)-6-(((1-(1-(tert-butyl)piperidin-4-yl)-1H-1,2,3-triazol-4-yl)(4-methylthiazol-5-yl)methyl)amino)-8-chloro-4-((3-chloro-4-fluorophenyl)amino)quinoline-3-carbonitrile]	60 nM	4 nM	
N#Cc1cnc2c(Cl)cc(N[C@@H](c3cccnc3)c3c[nH]nn3)cc2c1Nc1ccc(F)c(Cl)c1 [Example 308, (S)-8-chloro-4-((3-chloro-4-fluorophenyl)amino)-6-((pyridin-3-yl(1H-1,2,3-triazol-4-yl)methyl)amino)-quinoline-3-carbonitrile]	286 nM	4 nM	
CC1(C)CC(n2cc([C@@H](Nc3cc(Cl)c4ncc(C#N)c(Nc5ccc(F)c(Cl)c5)c4c3)c3cccnc3)nn2)CC(C)(C)N1 [Example 309]			EC50 (TNFα; [3]): 181 nM; IC50 (Human Cot; [4]): 8 nM
CC(C)(C)n1cc([C@@H](Nc2cc(Cl)c3ncc(C#N)c(Nc4ccc(F)c(Cl)c4)c3c2)c2cocn2)nn1 [Example 310, (S)-6-(((1-(tert-butyl)-1H-1,2,3-triazol-4-yl)(oxazol-4-yl)methyl)amino)-8-chloro-4-((3-chloro-4-fluorophenyl)amino)-quinoline-3-carbonitrile]	2340 nM	40 nM	
CC(C)(C)N1CCC(n2cc([C@@H](Nc3cc(Cl)c4ncc(C#N)c(Nc5ccc(F)c(Cl)c5)c4c3)c3cccnc3Cl)nn2)CC1 [Example 315, (S)-6-(((1-(1-(tert-butyl)piperidin-4-yl)-1H-1,2,3-triazol-4-yl)(2-chloropyridin-3-yl)methyl)arnino)-8-chloro-4-((3-chloro-4-fluorophenyl)amino)quinoline-3-carbonitrile]			EC50 (TNFα; [3]): 132 nM; IC50 (Human Cot; [4]): 4 nM
N#Cc1cnc2c(Cl)cc(N[C@@H](c3cscn3)c3cn(Cc4ccccn4)nn3)cc2c1Nc1ccc(F)c(Cl)c1 [Example 316, (S)-8-chloro-4-((3-chloro-4-fluorophenyl)amino)-6-(((1-(pyridin-2-ylmethyl)-1H-1,2,3-triazol-4-yl)(thiazol-4-yl)methyl)amino)quinoline-3-carbonitrile]	298 nM	6 nM	
Cc1nc(Cl)ccc1[C@H](Nc1cc(Cl)c2ncc(C#N)c(Nc3ccc(F)c(Cl)c3)c2c1)c1cn(C2CCN(C(C)(C)C)CC2)nn1 [Example 318]			EC50 (TNFα; [3]): 271 nM; IC50 (Human Cot; [4]): 8 nM
N#Cc1cnc2c(Cl)cc(N[C@H](c3cn(C4COC4)nn3)c3ccc(Cl)nc3Cl)cc2c1Nc1ccc(F)c(Cl)c1 [Example 322, (S)-8-chloro-4-((3-chloro-4-fluorophenyl)amino)-6-(((2,6-dichloro-pyridin-3-yl)(1-(oxetan-3-yl)-1H-1,2,3-triazol-4-yl)methyl)amino)quinoline-3-carbonitrile]	369 nM	33 nM	
